Data as given in patent publication US20080103164A1, “USEFUL COMPOUNDS FOR HPV INFECTION” (priority 2004, published 2008).

System: episomal HPV-16 DNA in W12-20850 cells
Assay: W-12 cellular assay: episomal HPV-16 DNA quantified by hybrid capture in W12-20850 cells
Type: cell-based, HPV16
Conditions: Human papillomavirus 16, 96 h, four days incubation, inhibition of episomal HPV-16 DNA relative to untreated control
Experimental: Compounds of the current invention are believed useful in the treatment and/or prophylaxis of conditions and diseases associated with HPV infection. Activity mediated through HPV was determined using the following W-12 cellular assay. The […] cell line used contains HPV16 DNA and was derived from a low-grade cervical dysplasia tissue by Margaret Stanley and subsequently clonally selected by Paul Lambert (University of Wisconsin). One of these clones, […]-20850, contains 1000 copies of episomal HPV16 DNA and was used in the cell-based assay. […]-20850 cells were routinely cultured with a gamma-irradiated (6000 rads) feeder layer of 3T3 cells. Assays, however, were run in the absence of a 3T3 feeder layer. […]-20850 and 3T3 cells were routinely split when they were sub-confluent. […]-20850 were grown in […] Medium which is constituted of 25% DMEM (Gibco BRL, Cat # 12430-047), 75% F12 Media (Gibco BRL, Cat # 11765-021) and 2.5% FBS. The additives include […] Adenine (Sigma, Cat # A-9795), […] Hydrocortisone (Calbiochem, Cat # 386698), […] Bovine Insulin (Sigma, Cat # 1-1882), 8.4 ng/ml cholera toxin (Fluka, Cat # 26694) and 10 ng/ml EGF (Invitrogen, Cat # 13247-051). 3T3 cells were grown in DMEM containing 10% FBS. Cell lines were incubated at 37° C., in the presence of 5% CO2. For the assay, […]-20850 cells were seeded into a 96 well plate-containing compound. Plates were incubated at 37° C. in the presence of 5% CO2, for four days. On the fourth day, cells were lysed and the amount of episomal HPV-16 DNA was quantified using a non-radioactive hybrid capture technique with HPV-16 specific capture and detection probes. The percent inhibition relative to untreated control cells was then determined. The hybrid capture assay is run in a 96 well plate format. Hybridization plates (Nunc Maxisorb Cat # 450320) were coated with a mixture of capture probe and ReactiBind solution for at least 4 hours and then washed with 0.2×SSC, 0.05% Tween-20 (SSCT) prior to blocking with 150 μl/well of 0.2 N NaOH, 1% Igepal, 10 mg/ml hsDNA for 6-8 hours. The hybridization was carried out by mixing 27 μl of lysed cells with 45 μl of denatured detection probe in 6M guanidine isothiocyanate. To prevent evaporation, 50 μl of mineral oil was added to each well. The plate was then heated to 90° C. for 6.5 minutes and the hybridization continued at 42° C. overnight. Assay plates were washed 6 times with SSC/T. Anti-digoxigenin HRP-conjugated Ab (Boehringer Mannheim 1207733, 1:5000) was incubated in the wells for 30 min at room temperature and washed with PBS/0.05% Tween-20. SuperSignal LBA substrate (Pierce Cat # 37070) was added, and chemiluminescence was measured using Wallac 1420 Victor plate reader.

Row | IC50 [nM] | Structure (SMILES)
1 | 2000 | Cc1cn(-c2ccnc(N3CCc4c([nH]c5ccccc45)C3c3ccc4c(c3)CCO4)n2)cn1 (stereo not drawn) [Example 39, 1-(2,3-dihydro-1-benzofuran-5-yl)-2-[4-(4-methyl-1H-imidazol-1-yl)-2-pyrimidinyl]-2,3,4,9-tetrahydro-1H-β-carboline]
2 | 2000 | c1ccc(-c2ccnc(N3CCc4c([nH]c5ccccc45)C3c3ccc4c(c3)OCO4)n2)cc1 (stereo not drawn) [Example 34, 1-(1,3-benzodioxol-5-yl)-2-(4-phenyl-2-pyrimidinyl)-2,3,4,9-tetrahydro-1H-β-carboline]
3 | 4000 | Cc1ccc(C2c3[nH]c4ccccc4c3CCN2C(=O)CNC(=O)OCc2ccccc2)cc1 (stereo not shown) [Example 22, Phenylmethyl {2-[1-(4-methylphenyl)-1,3,4,9-tetrahydro-2H-b-carbolin-2-yl]-2-oxoethyl}carbamate]
4 | 2000 | Cc1ccc(C2c3[nH]c4c(C)cccc4c3CCN2C(=O)CCc2ccccc2)cc1 (stereo not drawn) [Example 24, 8-Methyl-1-(4-methylphenyl)-2-(3-phenylpropanoyl)-2,3,4,9-tetrahydro-1H-β-carboline]
